Converted amounts (≈) assume the structure as drawn.
Tests used:
[1] = target: T1, glucocerebrosidase (Gcase) (Homo sapiens, UniProt P04062); assay: Glucocerebrosidase (Gcase) activation assay, 4-methylumbelliferyl-beta-D-glucopyranoside substrate, with saposin C; type: biochemical; settings: 10 nM GCase, 100 nM saposin C, pH 4.7; for activation at 0.1 µM: read-out: Percent Gcase Activation, 0.1 μM Test Compound; for activation at 1 µM: 0.25 h, read-out: Percent Gcase Activation, 1 μM Test Compound
T1 construct: 100 μL of micellar solution containing 10 nM GCase and 100 nM saposin C (Enzo ALX-201-262-C050)
T1 sequence (P04062 40-536): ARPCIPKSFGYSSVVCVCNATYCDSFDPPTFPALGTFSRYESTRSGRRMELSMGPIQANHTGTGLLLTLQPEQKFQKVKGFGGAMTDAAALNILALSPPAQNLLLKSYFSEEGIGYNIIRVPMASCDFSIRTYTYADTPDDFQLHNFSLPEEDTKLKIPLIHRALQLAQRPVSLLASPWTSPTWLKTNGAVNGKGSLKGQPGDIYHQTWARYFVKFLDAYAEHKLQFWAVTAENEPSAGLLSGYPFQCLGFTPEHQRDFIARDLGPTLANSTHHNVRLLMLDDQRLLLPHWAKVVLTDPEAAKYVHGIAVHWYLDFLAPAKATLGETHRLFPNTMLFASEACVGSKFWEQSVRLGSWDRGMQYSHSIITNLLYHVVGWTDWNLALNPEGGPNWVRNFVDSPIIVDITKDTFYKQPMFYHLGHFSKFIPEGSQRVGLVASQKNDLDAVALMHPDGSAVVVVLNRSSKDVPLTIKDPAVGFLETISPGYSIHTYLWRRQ
Method: A 484 μL aliquot of a 1.0 mg/mL solution of phosphatidylserine (PS) (Sigma P7769) in chloroform was evaporated under a stream of nitrogen for 1 hour. The lipid film was dissolved over 4 minutes of vigorous vortexing in 40 mL of 176 mM K2HPO4/50 mM citric acid (pH 4.7) containing 7.5 μL of triton X-100, resulting in a mixed micellar preparation with a composition of 0.32 mM triton and 0.37 mol % PS. 4-Methylumbelliferyl-beta-D-glucopyranoside (ACROS-337025000) was dissolved in the micellar solution to a final concentration of 2 mM for use as the reaction substrate.
Test compounds were diluted to the desired concentrations with dimethylsulfoxide (DMSO) from 10 mM stocks, and 0.41 μL of the DMSO compound mixture was added to 100 μL of micellar solution containing 10 nM GCase and 100 nM saposin C (Enzo ALX-201-262-C050). Pre-incubation was allowed to occur for 30 minutes at room temperature, after which the reaction was initiated by combining 25 μL of substrate solution with 25 μL of compound/GCase/saposin mixture. The reaction proceeded for 15 minutes at room temperature and was stopped by adding 150 μL of 1M glycine, pH 12.5. The endpoint of the reaction was monitored by measuring fluorescence intensity (excitation: 365 nm; emission: 440 nm) on a SpectraMax i3 instrument (Molecular Devices). Test compounds were screened at 1.0 and 0.1 μM final concentration, and subsequent 8-point dose response curves were obtained using 3-fold dilutions from a maximum final concentration of 5 μM.

[2] = Compound solubility in water

Compound	activation at 0.1 µM ([1]; 0.1 μM test compound)	activation at 1 µM ([1]; 1 μM test compound)	solubility [2]	Percent Gcase Activation, 0.1 μM Test Compound ([1]; 0.1 μM test compound)	Percent Gcase Activation, 1 μM Test Compound ([1]; 1 μM test compound)
O=C(NC1CCc2ccccc2C1)c1cnc2occn2c1=O (stereo not shown)	5 to 10%	< 5%	22.6 µg/mL (≈ 73.1 µM)	–	–
CCc1ccc(NC(=O)c2cnc3occn3c2=O)cc1	< 5%	5 to 10%	–	–	–
O=C(NC1CCC(c2ccccc2)CC1)c1cnc2occn2c1=O (stereo not shown)	< 5%	> 10%	58 µg/mL (≈ 172 µM)	–	–
CCC(C)c1ccc(NC(=O)c2cnc3n(C)ccn3c2=O)cc1 (stereo not shown)	< 5%	> 10%	0.5 µg/mL (≈ 1.54 µM)	–	–
CCN1CCN(c2ccc(NC(=O)c3cnc4occn4c3=O)cc2)CC1	< 5%	< 5%	40.2 µg/mL (≈ 109 µM)	–	–
O=C(Nc1ccc2c(c1)OCCO2)c1cnc2occn2c1=O	< 5%	< 5%	5.5 µg/mL (≈ 17.6 µM)	–	–
O=C(Nc1ccc(N2CCCCC2)cc1)c1cnc2occn2c1=O	< 5%	< 5%	2.2 µg/mL (≈ 6.5 µM)	–	–
C#Cc1ccc(NC(=O)c2cnc3occn3c2=O)cc1	5 to 10%	5 to 10%	5.5 µg/mL (≈ 19.7 µM)	–	–
O=C(NC1CCc2ccccc21)c1cnc2occn2c1=O (stereo not shown)	< 5%	5 to 10%	25.1 µg/mL (≈ 85 µM)	–	–
CCC(C)c1ccc(NC(=O)c2cnc3occn3c2=O)cc1 (stereo not shown)	< 5%	> 10%	0.3 µg/mL (≈ 0.964 µM)	–	–
C[C@@H](NC(=O)c1cnc2occn2c1=O)c1ccccc1	< 5%	< 5%	25.6 µg/mL (≈ 90.4 µM)	–	–
CN1Cc2ccc(NC(=O)c3cnc4occn4c3=O)cc2C1	< 5%	5 to 10%	16.6 µg/mL (≈ 53.5 µM)	–	–
O=C(NC1CCCc2ccccc21)c1cnc2occn2c1=O (stereo not shown)	< 5%	> 10%	30.2 µg/mL (≈ 97.6 µM)	–	–
N-(4-butylcyclohexyl)-6-oxo-3,4-dihydro-2H,6H-pyrimido[2,1-b][1,3]thiazine-7-carboxamide	–	–	–	+ (less than 5% Gcase activation)	+++ (Gcase activation greater than 10%)
CCC(C)c1ccc(NC(=O)c2cnc3[nH]ccn3c2=O)cc1 (stereo not shown)	< 5%	5 to 10%	1.4 µg/mL (≈ 4.51 µM)	–	–
